In ChEMBL document CHEMBL5725201, “Cycloalkane derivatives” (2016) one finds IC50 data, which are given here for one molecule.

The assay in a line: Electrophysiological Assay: Current record was obtained by an automated patch clamp system IonWorks Quattro (Molecular Devices Corporation) in Population Patch Clamp mode. The operation was conducted in accordance with the operating procedure of the system. A Dulbecco's phosphate buffer containing calcium and magnesium (Sigma) was used as an extracellular fluid, and a low Cl-buffer (100 mM K-gluconate, 40 mM KCl, 3.2 mM MgCl2, 5 mM EGTA, 5 mM Hepes, pH 7.3) was used as an intracellular fluid. A test compound was dissolved in dimethylsulfoxide (DMSO) to prepare a 30 mM stock solution, so as to produce 4-fold serial dilutions with the extracellular fluid for attaining a DMSO concentration of 0.3% in measurement.The hNav 1.7/β1/β2 cells cultured to a 70-80% confluent state in a T150 flask (Sumilon) were washed with PBS and subsequently with versene (Invitrogen Corp.), and collected by allowing to react with 0.05% trypsin (Invitrogen Corp.) at 37° C. for 3 minutes. After washing with a culture medium, the resultant cells were suspended in an extracellular fluid at a concentration of […] so as to be used for the measurement. The cell membrane was perforated by using an intracellular fluid including 100 ug/ml amphotericin B (Sigma). Current response was obtained at a sampling frequency of 10 kHz. […]. Type of assay: cell-based. In general terms: The patch-clamp technique gives a direct electrical read-out from membranes.

As usually defined, the IC50 is the concentration needed to halve the response being measured.

With `Cc1c(O[C@H]2CCCC[C@@H]2c2c[nH]nc2N)ccc(S(=O)(=O)Nc2ccncn2)c1F`, the IC50 is 100 nM.
